Assay results: paper PMC12919657 (Results in chemistry, 2025)

Assay: pKa determination
Format: physicochemical
Conditions: methanol / 1 N HCl solution

## O=C(CCCN1CCC(O)(c2ccc(Cl)cc2)CC1)c1ccc(F)cc1 [Haloperidol]
  pKa: 8.22 ± 0.09
